Measurements taken from paper PMC10536391, “Inhibition of the hERG Potassium Channel by a Methanesulphonate-Free E-4031 Analogue” (Pharmaceuticals, 2023).

Columns and labels:
Format in all cases: cell-based
[1] = target: T1, hERG potassium channel (human Ether-à-go-go Related Gene) (Homo sapiens, UniProt Q12809, S624A); test: whole-cell patch-clamp, single concentration […]; conditions: read-out: % of control tail current at 300 nM
T1 construct: gene KCNH2; S624A hERG transiently expressed in HEK 293 cells

[2] = target: T2, hERG potassium channel (human Ether-à-go-go Related Gene) (Homo sapiens, UniProt Q12809, T623A); test: whole-cell patch-clamp, inward tail current in […] K+, […]; conditions: read-out: % of control tail current at 300 nM
T2 construct: gene KCNH2; T623A hERG transiently expressed in HEK 293 cells

[3] = target: T3, hERG potassium channel (human Ether-à-go-go Related Gene) (Homo sapiens, UniProt Q12809, N588K); test: whole-cell patch-clamp, single concentration […]; conditions: read-out: % of control tail current at 300 nM
T3 construct: gene KCNH2; N588K hERG transiently expressed in HEK 293 cells

[4] = target: T4, hERG potassium channel (human Ether-à-go-go Related Gene) (Homo sapiens, UniProt Q12809); test: whole-cell patch-clamp, hERG tail current, […] °C
T4 construct: gene KCNH2; wild-type hERG stably expressed in HEK 293 cells

[5] = target: T5, hERG potassium channel (human Ether-à-go-go Related Gene) (Homo sapiens, UniProt Q12809, F557L); test: whole-cell patch-clamp, single concentration […]; conditions: read-out: % of control tail current at 300 nM
T5 construct: gene KCNH2; F557L hERG transiently expressed in HEK 293 cells

Cc1ccc(C(=O)C2CCN(CCc3ccccc3)CC2)cc1 [E-4031-17]
activity at 0.3 µM [1]: 57.2% | activity at 0.3 µM [2]: 69.7% | activity at 0.3 µM [3]: 43.2% | IC50 [4]: 0.0403 µM | activity at 0.3 µM [5]: 57.9%
